Results published in PubChem BioAssay AID1896 (NMMLSC, 2009).
Activity calls are given as the source filed them. How the calls were made is not given here.

Target: Mitogen-activated protein kinase kinase kinase 3 (Homo sapiens) (UniProt Q99759)
Test: MEKK3 PB1-MEK5 interaction blockers – biochemical, bead multiplex flow cytometry, wildtype, dose response (AID 1896)
Details: bead-based multiplex flow cytometry, MEK5-MEKK3 PB1 binding; for Ki: measured here: Ki from EC50

Chain of Mitogen-activated protein kinase kinase kinase 3 (Homo sapiens) (Q99759 whole entry, looked up): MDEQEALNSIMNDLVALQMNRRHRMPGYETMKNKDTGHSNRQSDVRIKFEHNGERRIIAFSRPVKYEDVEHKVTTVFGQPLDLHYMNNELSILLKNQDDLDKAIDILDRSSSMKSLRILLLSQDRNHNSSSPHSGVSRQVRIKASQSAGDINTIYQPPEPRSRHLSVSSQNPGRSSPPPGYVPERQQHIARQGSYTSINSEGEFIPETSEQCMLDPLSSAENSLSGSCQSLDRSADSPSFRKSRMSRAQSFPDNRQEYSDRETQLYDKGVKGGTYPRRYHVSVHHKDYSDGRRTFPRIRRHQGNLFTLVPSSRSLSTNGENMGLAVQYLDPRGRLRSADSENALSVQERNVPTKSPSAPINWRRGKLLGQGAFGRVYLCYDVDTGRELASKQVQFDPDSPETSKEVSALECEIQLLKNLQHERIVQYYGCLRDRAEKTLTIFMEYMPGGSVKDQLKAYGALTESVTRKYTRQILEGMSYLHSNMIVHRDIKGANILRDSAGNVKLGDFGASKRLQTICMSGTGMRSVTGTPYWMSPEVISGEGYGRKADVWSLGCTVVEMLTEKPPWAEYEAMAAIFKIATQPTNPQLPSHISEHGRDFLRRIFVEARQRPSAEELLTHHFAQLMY

EC50	Ki	Structure (SMILES)
> 30 µM (inactive)	–	COc1ccc(NC(=O)N(Cc2cc3cc(C)ccc3[nH]c2=O)CC2CCCO2)cc1 (stereo unspecified)
2.83 µM	2.42 µM	CCC(/C=C1\Sc2ccc(OC)cc2N1CCO)=C\c1sc2ccc(OC)cc2[n+]1CCO
> 30 µM (inactive)	–	COc1cc(/C=N/NC(=O)c2cc3ccccc3cc2O)ccc1OCCN1CCCCC1
> 30 µM (inactive)	–	CCOC(=O)c1c(CSC(=N)N)n(-c2ccc(C)cc2)c2cc(Br)c(OC(C)=O)cc12
> 30 µM (inactive)	–	COc1cc(CNCCc2c[nH]c3ccccc23)ccc1OCc1ccccc1F
> 30 µM (inactive)	–	CC(C)N=c1cc2n(-c3ccc(Cl)cc3)c3ccccc3nc-2cc1Nc1ccc(Cl)cc1
> 30 µM (inactive)	–	COc1cc2nc(N3CCN(c4cc(C)ccc4C)CC3)nc(N)c2cc1OC
> 30 µM (inactive)	–	COc1ccc(Cn2c(SCc3ccccc3C)nc3cc(OC)c(OC)cc3c2=N)cc1
> 30 µM (inactive)	–	COc1ccc(Cn2c(SCc3ccc(C)cc3)nc3cc(OC)c(OC)cc3c2=N)cc1Cl
> 30 µM (inactive)	–	COC(=O)C1=C(C)N(Cc2ccccc2)C(=NCc2cccc(C(F)(F)F)c2)N[C@H]1c1cccc(F)c1
> 30 µM (inactive)	–	CCc1ccc(Nc2n[n+](-c3ccccc3)c(-c3ccc(OC)c(Br)c3)s2)cc1

Further lines, the compound ahead of its results:

Structure (SMILES)	EC50	Ki
CCN1C(c2ccccc2)=C(c2ccccc2)S/C1=C\C=C1/SC(=S)N(C)C1=O	3.93 µM	3.36 µM
CCN(CC)CCOC(=O)c1ccc(N/C=C(/C#N)c2nc(-c3cc4ccccc4oc3=O)cs2)cc1	3.81 µM	3.26 µM
CCN1CCN(Cc2ccc(NC(=O)c3cc(NC(=O)C(=O)c4c[nH]c5ccccc45)cc(OC)c3)cc2C(F)(F)F)CC1	> 30 µM (inactive)	–
CC(=O)c1c(C)[nH]c(C(=O)NC2=NCCS2)c1C	> 30 µM (inactive)	–
NC(N)=N/N=C/c1ccc(OCc2ccc(Cl)cc2Cl)cc1	> 30 µM (inactive)	–
COCc1c(C#N)c(NCCc2ccccc2)nc(C)c1[N+](=O)[O-]	> 30 µM (inactive)	–
CCCCCCCCCCCCCCCC[n+]1cccc2ccccc21	> 30 µM (inactive)	–
CCOc1ccc(C2=C/C(=C/c3cccnc3)C(=O)O2)cc1	> 30 µM (inactive)	–
CN(C)CCCN(C(=O)c1ccc2c(c1)CCCC2)c1nc2ccc(Cl)cc2s1	> 30 µM (inactive)	–
C#CCOCCOCCOCCNc1nc(N2CCN(C(=O)C(Cc3ccc(O)cc3)n3cc(C(N)CC(C)C)nn3)CC2)nc(N2CCN(C(=O)C(Cc3cc4ccccc4[nH]3)n3cc(C(N)Cc4ccc(O)cc4)nn3)CC2)n1 (stereo unspecified)	> 30 µM (inactive)	–
Cc1nn2c(N)csc2nc1=O	4.14 µM	3.54 µM
C#CCOCCOCCOCCNc1nc(N2CCN(C(=O)[C@H]([C@@H](C)CC)n3cc([C@@H](N)Cc4ccc(O)cc4)nn3)CC2)nc(N2CCN(C(=O)[C@H](Cc3cc4ccccc4[nH]3)n3cc([C@@H](N)C(C)CC)nn3)CC2)n1 (stereo partly specified)	> 30 µM (inactive)	–
Cc1cc2ccccc2n1CCNC(=O)c1ccc(Br)o1	11.9 µM	10.1 µM
CC[n+]1c(/C=C/C=C/N(C(C)=O)c2ccccc2)sc2ccccc21	> 30 µM (inactive)	–
C#CCOCCOCCOCCNc1nc(N2CCN(C(=O)[C@H]([C@@H](C)CC)n3cc([C@@H](N)CC(C)C)nn3)CC2)nc(N2CCN(C(=O)[C@H](Cc3cc4ccccc4[nH]3)n3cc([C@@H](N)CC(C)C)nn3)CC2)n1	> 30 µM (inactive)	–
CCc1ccc(Nc2n[n+](-c3ccccc3)c(-c3ccc(OCc4ccccc4)cc3)s2)cc1	> 30 µM (inactive)	–
CCCSc1ncnc2sc(C)c(C)c12	> 30 µM (inactive)	–
C/C(=N\NC(=O)c1cc(O)cc(O)c1)c1ccc(NC(=O)Cc2ccccc2)cc1	> 30 µM (inactive)	–
CNC[C@H](CC1CCCCC1)NC[C@H](Cc1ccccc1)NCCC12CC3CC(CC(C3)C1)C2	> 30 µM (inactive)	–
CCOC(=O)C(C(=O)OCC)c1cc(Br)c2noc3c2c1C(=O)c1ccccc1-3	> 30 µM (inactive)	–
CCCCCCCCCCOC(=O)Cn1c(COc2cccc(OC)c2)[n+](C)c2ccccc21	> 30 µM (inactive)	–
C#CCOCCOCCOCCNc1nc(N2CCN(C(=O)[C@H]([C@@H](C)CC)n3cc([C@@H](N)CC(C)C)nn3)CC2)nc(N2CCN(C(=O)[C@H](Cc3cc4ccccc4[nH]3)n3cc([C@@H](N)Cc4ccc(O)cc4)nn3)CC2)n1	> 30 µM (inactive)	–
C#CCOCCOCCOCCNc1nc(N2CCN(C(=O)[C@H](Cc3cc4ccccc4[nH]3)n3cc([C@@H](N)C(C)CC)nn3)CC2)nc(N2CCN(C(=O)[C@H](Cc3cc4ccccc4[nH]3)n3cc([C@@H](N)Cc4ccc(O)cc4)nn3)CC2)n1 (stereo partly specified)	> 30 µM (inactive)	–
C#CCOCCOCCOCCNc1nc(N2CCN(C(=O)[C@H](Cc3cc4ccccc4[nH]3)n3cc([C@@H](N)CC(C)C)nn3)CC2)nc(N2CCN(C(=O)[C@H](Cc3cc4ccccc4[nH]3)n3cc([C@@H](N)CC(C)C)nn3)CC2)n1	> 30 µM (inactive)	–
Cc1cc(N=Nc2ccc(C)c(N=Nc3cc(C)c(N)cc3N)c2)c(N)cc1N	> 30 µM (inactive)	–
